In publication PMC3800051 (Bioorganic & medicinal chemistry letters, 2009):
Entries after “also recorded” stand apart in the source; their conditions may differ.

Experiments:
PLD1 [1] = molecular target: T1, PLD1 (Homo sapiens, UniProt Q13393); details: cellular assay, Calu-1 cells
T1 sequence (Q13393 1-1074): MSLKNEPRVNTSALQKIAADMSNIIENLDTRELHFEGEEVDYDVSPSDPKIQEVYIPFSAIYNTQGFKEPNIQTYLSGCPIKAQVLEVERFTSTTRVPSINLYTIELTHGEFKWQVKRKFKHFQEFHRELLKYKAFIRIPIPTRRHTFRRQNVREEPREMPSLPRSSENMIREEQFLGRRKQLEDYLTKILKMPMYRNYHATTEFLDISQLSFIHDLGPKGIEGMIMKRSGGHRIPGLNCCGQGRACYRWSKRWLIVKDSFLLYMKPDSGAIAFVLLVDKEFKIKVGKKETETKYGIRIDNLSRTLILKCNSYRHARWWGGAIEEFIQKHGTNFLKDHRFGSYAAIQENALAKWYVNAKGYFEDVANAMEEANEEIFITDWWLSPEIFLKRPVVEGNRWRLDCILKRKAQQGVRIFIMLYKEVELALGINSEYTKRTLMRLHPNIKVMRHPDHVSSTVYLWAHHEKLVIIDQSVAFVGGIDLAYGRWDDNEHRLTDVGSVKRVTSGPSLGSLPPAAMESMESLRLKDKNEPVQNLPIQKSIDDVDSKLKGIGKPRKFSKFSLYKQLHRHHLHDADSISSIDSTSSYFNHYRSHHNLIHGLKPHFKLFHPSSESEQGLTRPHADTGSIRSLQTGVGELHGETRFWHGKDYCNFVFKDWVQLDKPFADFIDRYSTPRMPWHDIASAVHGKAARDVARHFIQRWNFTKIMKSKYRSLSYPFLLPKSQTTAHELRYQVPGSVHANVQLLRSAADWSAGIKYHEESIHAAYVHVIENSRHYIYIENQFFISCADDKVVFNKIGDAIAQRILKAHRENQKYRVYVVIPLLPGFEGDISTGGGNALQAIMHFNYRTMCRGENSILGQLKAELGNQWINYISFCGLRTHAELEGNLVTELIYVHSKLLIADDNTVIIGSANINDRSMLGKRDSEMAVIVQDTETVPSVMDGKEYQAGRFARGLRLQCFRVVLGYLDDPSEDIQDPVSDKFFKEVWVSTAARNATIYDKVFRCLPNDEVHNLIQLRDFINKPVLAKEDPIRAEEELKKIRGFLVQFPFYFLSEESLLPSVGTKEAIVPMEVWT

PLD2 = PLD2 (Homo sapiens, UniProt O14939); details: cellular assay, HEK293-gfpPLD2 cells
PLD1 [2] = molecular target: T1, PLD1; assay: cell-based

Chain of PLD2 (O14939 whole entry): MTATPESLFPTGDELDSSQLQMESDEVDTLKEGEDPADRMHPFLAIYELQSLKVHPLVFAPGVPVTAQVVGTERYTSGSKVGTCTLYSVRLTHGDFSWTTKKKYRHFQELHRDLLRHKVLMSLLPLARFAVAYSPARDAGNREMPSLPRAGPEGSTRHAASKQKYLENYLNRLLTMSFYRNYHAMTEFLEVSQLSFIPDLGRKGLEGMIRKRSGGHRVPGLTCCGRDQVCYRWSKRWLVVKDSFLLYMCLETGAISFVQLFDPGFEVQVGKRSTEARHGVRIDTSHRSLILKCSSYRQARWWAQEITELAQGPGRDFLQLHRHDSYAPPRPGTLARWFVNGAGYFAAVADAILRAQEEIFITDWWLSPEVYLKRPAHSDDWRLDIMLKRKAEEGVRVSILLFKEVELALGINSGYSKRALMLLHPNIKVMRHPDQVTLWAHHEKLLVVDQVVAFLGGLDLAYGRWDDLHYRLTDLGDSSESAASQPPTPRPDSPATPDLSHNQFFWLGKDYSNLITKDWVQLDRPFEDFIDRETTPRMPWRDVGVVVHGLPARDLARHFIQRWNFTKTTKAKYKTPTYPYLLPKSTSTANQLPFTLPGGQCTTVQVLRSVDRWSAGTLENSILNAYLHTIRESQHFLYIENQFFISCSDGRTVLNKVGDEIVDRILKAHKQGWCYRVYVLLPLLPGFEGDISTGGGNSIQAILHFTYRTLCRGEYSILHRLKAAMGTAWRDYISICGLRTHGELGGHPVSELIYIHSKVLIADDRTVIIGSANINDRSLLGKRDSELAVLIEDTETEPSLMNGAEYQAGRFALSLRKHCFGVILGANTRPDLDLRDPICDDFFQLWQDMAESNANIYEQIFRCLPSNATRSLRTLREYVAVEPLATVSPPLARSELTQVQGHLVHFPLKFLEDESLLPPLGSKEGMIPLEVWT

SMILES	PLD1 inhibition (in words) (PLD1 [1])	PLD2 inhibition (in words) (PLD2)	IC50 (PLD1 [2]) [µM]
O=C(NCCN1CCC2(CC1)C(=O)NCN2c1ccccc1)[C@H]1C[C@@H]1c1ccccc1 [Compound 9a]	inactive on both PLD isoforms; also recorded: complete loss of PLD inhibition	inactive on both PLD isoforms; also recorded: complete loss of PLD inhibition	
O=C(NCCN1CCC2(CC1)C(=O)NCN2c1ccccc1)c1cnc2ccccc2n1 [Compound 9g]	complete loss of PLD inhibitory activity	complete loss of PLD inhibitory activity	
C[C@@H](CN1CCC2(CC1)C(=O)NCN2c1ccccc1)NC(=O)[C@H]1C[C@@H]1c1ccccc1 [Compound 10b]		no effect, relative to 9a, on PLD2 inhibition	
c1cc(N2CCNCC2)ccn1 [Compound 15]			3.6 to 18
c1ccc(N2CCNCC2)nc1 [Compound 16]			3.6 to 18
